{
  "source": "PubChem BioAssay (NCI)",
  "assay_in_all_cases": "inhibition of tumour cell growth, NCI panel, 384-well format",
  "key": {"786-0 renal": {"system": "786-0 renal"}, "UACC-257 melanoma": {"system": "UACC-257 melanoma"}, "RPMI-8226 leukemia": {"system": "RPMI-8226 leukemia"}, "MCF7 breast": {"system": "MCF7 breast"}, "HCC-2998 colon": {"system": "HCC-2998 colon"}, "SW-620 colon": {"system": "SW-620 colon"}, "A498 renal": {"system": "A498 renal"}, "SF-295 CNS": {"system": "SF-295 CNS"}, "SK-OV-3 ovarian": {"system": "SK-OV-3 ovarian"}, "DU-145 prostate": {"system": "DU-145 prostate"}, "HS 578T breast": {"system": "HS 578T breast"}, "LOX IMVI melanoma": {"system": "LOX IMVI melanoma"}, "RXF 393 renal": {"system": "RXF 393 renal"}},
  "note": "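GI50 is the concentration that inhibits growth by half. TGI denotes the concentration required for complete inhibition of growth.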",
  "data": [
    {"compound": "CNC(=O)c1ccccc1Nc1nc(Nc2ccc3c(c2OC)CCC[C@H](N2CCN(CCO)CC2)C3)ncc1Cl", "values": [
      {"measurement": "GI50", "setting": "786-0 renal", "result": 1.16, "unit": "µM"},
      {"measurement": "TGI", "setting": "786-0 renal", "result": 2.41, "unit": "µM"},
      {"measurement": "GI50", "setting": "UACC-257 melanoma", "result": 0.327, "unit": "µM"},
      {"measurement": "TGI", "setting": "UACC-257 melanoma", "result": 0.993, "unit": "µM"},
      {"measurement": "GI50", "setting": "RPMI-8226 leukemia", "result": 1.15, "unit": "µM"},
      {"measurement": "TGI", "setting": "RPMI-8226 leukemia", "result": 2.42, "unit": "µM"},
      {"measurement": "GI50", "setting": "MCF7 breast", "result": 0.244, "unit": "µM"},
      {"measurement": "TGI", "setting": "MCF7 breast", "result": 1.52, "unit": "µM"},
      {"measurement": "GI50", "setting": "HCC-2998 colon", "result": 1.21, "unit": "µM"},
      {"measurement": "TGI", "setting": "HCC-2998 colon", "result": 2.55, "unit": "µM"},
      {"measurement": "GI50", "setting": "SW-620 colon", "result": 0.727, "unit": "µM"},
      {"measurement": "TGI", "setting": "SW-620 colon", "result": 2.1, "unit": "µM"},
      {"measurement": "GI50", "setting": "A498 renal", "result": 0.488, "unit": "µM"},
      {"measurement": "TGI", "setting": "A498 renal", "result": 1.7, "unit": "µM"},
      {"measurement": "GI50", "setting": "SF-295 CNS", "result": 1.71, "unit": "µM"},
      {"measurement": "TGI", "setting": "SF-295 CNS", "result": 3.11, "unit": "µM"},
      {"measurement": "GI50", "setting": "SK-OV-3 ovarian", "result": 0.74, "unit": "µM"},
      {"measurement": "TGI", "setting": "SK-OV-3 ovarian", "result": 2.3, "unit": "µM"},
      {"measurement": "GI50", "setting": "DU-145 prostate", "result": 0.728, "unit": "µM"},
      {"measurement": "TGI", "setting": "DU-145 prostate", "result": 2.6, "unit": "µM"},
      {"measurement": "GI50", "setting": "HS 578T breast", "result": 0.726, "unit": "µM"},
      {"measurement": "TGI", "setting": "HS 578T breast", "result": 2.03, "unit": "µM"},
      {"measurement": "GI50", "setting": "LOX IMVI melanoma", "result": 0.655, "unit": "µM"},
      {"measurement": "TGI", "setting": "LOX IMVI melanoma", "result": 1.97, "unit": "µM"},
      {"measurement": "GI50", "setting": "RXF 393 renal", "result": 0.565, "unit": "µM"},
      {"measurement": "TGI", "setting": "RXF 393 renal", "result": 1.71, "unit": "µM"}
    ]}
  ]
}
